Data: publication PMC3422668 (Journal of immunology (Baltimore, Md. : 1950), 2012)
Entries after “also recorded” stand apart in the source; their conditions may differ.

Experiments:
mAb 64-3-7 = type: binding, murine; details: SPR, BIAcore T100; graded peptide concentrations 11, 33 and 100 μM; Figure 1B
mAb 64-3-7 Fab = experiment: SPR direct binding of soluble 64-3-7 Fab to peptide coupled to a CM5 chip; parameters: species or system murine; details: similarly coupled peptide surface, data not shown
[1] = biological target: T1, H-2L^d octamer peptide EPQAPWME, residues 46-53 (mouse); experiment: crystal structure
T1 chain: EPQAPWME

[2] = biological target: T2, H-2L^d heptamer peptide EPQAPWM (residues 46 to 52) (Mus musculus, H-2Ld); experiment: SPR
T2 chain: EPQAPWM

[3] = biological target: T3, H-2L^d 6-mer peptide EPQAPW (Mus musculus, H-2Ld); experiment: SPR
T3 chain: EPQAPW

EPQAPW
competition for antibody binding to pL^d35-55-coupled surface (mAb 64-3-7): intermediate activity

EPQAPWM
competition for antibody binding to pL^d35-55-coupled surface (mAb 64-3-7): compete effectively

PQAPWM
competition for antibody binding to pL^d35-55-coupled surface (mAb 64-3-7): intermediate activity; also recorded: only binds weakly

QAPWM
competition for antibody binding to pL^d35-55-coupled surface (mAb 64-3-7): fails to block

RFDSDAENPRYEPRARWMEQE [pK^b35-55]
direct binding of 64-3-7 Fab to peptide-coupled biosensor surface (mAb 64-3-7 Fab): no detectable binding

SNVREIKNRWRSTVQKLK [control peptide, reference compound]
direct binding of 64-3-7 Fab to peptide-coupled biosensor surface (mAb 64-3-7 Fab): no detectable binding

B1: Fab fragment of mAb 64-3-7 (Fab, V domains shown)
VH: EVKLVESEGGLVQPGSSMKLSCTASGFTFSDYYMAWVRQVPEKGLEWVANINYDGSSTYYLDSLKGRFIISRDIAKNILYLQMSSLRCEDTATYYCARLTNGYLDVWGAGTTVTVSS
VL: DVVMTQTPLSLPVSLGDQASISCRSSQSLVHSNGNTYLHWYLQKPGQSPNLLIYKVSNRFSGVPDRFSGSGSGTDFTLKISRVEAEDLGVYFCSQSTHVPTFGGGTKLEIK
binding result [1]: binds

B2: mAb 64-3-7 (antibody, V domains shown)
VH: EVKLVESEGGLVQPGSSMKLSCTASGFTFSDYYMAWVRQVPEKGLEWVANINYDGSSTYYLDSLKGRFIISRDIAKNILYLQMSSLRCEDTATYYCARLTNGYLDVWGAGTTVTVSS
VL: DVVMTQTPLSLPVSLGDQASISCRSSQSLVHSNGNTYLHWYLQKPGQSPNLLIYKVSNRFSGVPDRFSGSGSGTDFTLKISRVEAEDLGVYFCSQSTHVPTFGGGTKLEIK
binding result [2]: binds
binding result [3]: binds
